This is an account of results in US12414983B2, “CD200AR ligands for cancer immunotherapy” (REGENTS OF THE UNIVERSITY OF MINNESOTA, priority 2019, dated 2025).

Experiment [1] deals with CD14+ cells. Briefly: Dendritic cell maturation: phenotyping for CD80, CD86, HLA-DR. Type of experiment: cell-based, human. The settings on record: peptide alone compared with GM-CSF+IL4, p<0.0001. As to the method: FIGS. 4A-4D. Targeting CD200 activation receptors enhances dendritic cell maturation. (FIGS. 4A, 4B) CD14 purified cells were pulsed with (FIG. 4A) GM-CSF+IL4 or equal molar ratios of peptides P1A8, P2A0, or P4A10 or (FIG. 4B) GM-CSF+IL4 plus equal molar ratios of peptides P1A8, P2A0, or P4A10 and incubated for 48 h. Cells were harvested and phenotyped for CD80, CD86, and HLA-DR. (FIG. 4C) Immature dendritic cells from donors with or without CMV were pulsed with the CMV antigen pp65+/−equal molar ratios of peptides P1A8, P2A0, or P4A10. Cells were washed, and autologous T-cells were added back and incubated for a further 48 h. Supernatants were analyzed for IFNγ production. (FIG. 4D) Immature dendritic cells were pulsed with the CMV antigen pp65+/−P4A10. After the cells were washed, autologous T-cells were added back and incubated for a further 48 h. Supernatants were analyzed for IFNγ, IL-6, TNFα and RANTES content. Error bars represent standard deviation (n=3 healthy donors/group, *P<0.05, **P<0.005, ***P<0.0005 by t-test). The data represent three separate healthy donors. Black bars represent CMV-negative donors.
Targeting CD200 activation receptors enhances dendritic cell maturation. TNF-regulated cytokines (Table 1) have been implicated in dendritic cell maturation. […] To substantiate this, CD14^+ cells were isolated from healthy human donors and pulsed with GM-CSF+IL4, P1A8, P2A0, or P4A10 27. Cells pulsed with P1A8, P2A0, and P4A10 expressed higher levels of the co-stimulatory molecules CD80, CD86, and HLA-DR than cells treated with GM-CSF+IL4 (p<0.0001; FIG. 4a). Moreover, we observed synergistic upregulation of CD80/86 and HLA-DR when CD14^+ cells were incubated with GM-CSF+IL4 and each of the peptides (p<0.0001) (FIG. 4b).

A further experiment concerns Human CD14+ cells. Briefly: Cytokine measurements in CD14+ cells pulsed with CD200AR-L peptide. The class given is cell-based. The settings on record: selection among 61 alanine-substituted peptides. On the procedure: Cytokine measurements. Human CD14^+ cells (5×10^5) were isolated from peripheral blood mononuclear cells (PBMCs) using anti-CD14 beads (BD Biosciences, San Jose, CA), typically yielding ≥70% recovery and ≥90% purity. Cells were pulsed with 2 μM CD200AR-L peptide and incubated for 48 h, after which the supernatants were analyzed by bead array for cytokine production (BD Biosciences, San Jose, CA).

Experiment [2] concerns CD14+ cells. Briefly: RNAseq / NanoString gene expression analysis of pulsed CD14+ cells. The class given is cell-based, human. From the text: Nanostring gene expression analysis: Total RNA from CD14^+ cells was sent to New Zealand Genomics Limited (Dunedin, New Zealand) to measure the expression of genes that are differentially expressed during inflammation (nCounter GX, NanoString Technologies, Seattle, WA, USA). Briefly, total RNA was extracted from CD14^+ cells (MagJET RNA kit, Thermo Fisher Scientific, Waltham, MA) using the protocol adapted for tissue (KingFisher Duo machine, Thermo Fisher Scientific, Waltham, MA). RNA samples were then quantified (Qubit® 2.0 fluorometer, Thermo Fisher Scientific) and subjected to RNA integrity analysis (2100 Bioanalyzer, Agilent Technologies, Santa Clara, CA). Probes for the genes encoding CD44 (NM_001001392.1); NANOG (NM_024865.2); OCT4 (NM_002701.4); STAT3 (NM_139276.2); and the housekeeping genes glucuronidase beta (NM_000181.1), clathrin heavy chain (NM 4859.2), and hypoxanthine phosphoribosyltransferase 1 (NM_000194.1) were designed and manufactured by NanoString Technologies.
Expression data obtained with NanoString GX were analyzed by using nSolver Analysis Software 3.0 (nanostring.com/products/nSolver) with default settings, and normalized to housekeeping genes. nSolver was used to perform cluster analysis and to generate heat maps by using Java Treeview Version 1.1.6r4. Pathway analysis was performed by using the PathCards Pathway Unification Database (pathcards.genecards.org). Student's t-tests were used to determine significant differences (p<0.05).

The test system of the next experiment is human CD14 cells. Description: CD200R1 and PD-1 on human CD14 cells pulsed with human CD200AR-L, flow cytometry. The class given is cell-based. The following applies: mean fluorescent intensity. On the procedure: FIGS. 7A-7G. CD200AR-L pulses down-regulate inhibitory CD200R1. Murine CD11b cells were pulsed with mCD200AR-L, RNA was extracted and analyzed for CD200R1 or PD-1 expression (FIGS. 7A&B). To further these studies, CD11b cells were stimulated with OVA+/−CD200AR-L, cells were washed and purified T cells were added. Following 24 hr incubation, T-cells were isolated and analyzed for CD200R1 or PD-1 expression (FIGS. 7C&D). To see if these experiments translated to humans, CD14 cells were pulsed with our human CD200AR-L. Following 24 hr incubation, cells were stained with anti-CD200R1 analyzed by flow cytometry (FIG. 7E), mean fluorescent intensity was analyzed for CD200R1 (FIG. 7F) and PD-1 (FIG. 7G) expression. […] Error bars represent standard deviation (n=3/group, *P<0.05, **P<0.005, ***P<0.0005, ****P<0.00005 by t-test.
FIGS. 13A-13F. Figure. […] Murine CD11b cells were pulsed CD200AR-L and analyzed for transcription levels of (FIG. 13A) CD200R1 and (FIG. 13B) PD-1; Human CD14 cells were pulsed with human CD200AR-L, following 48 hr incubation, cells were analyzed by flow cytometry for (FIG. 13C) CD200R1 and (FIG. 13D) PD-1 expression; murine CD11b cells from wildtype mice were pulsed with OVA+/− the CD200AR-L. Cells were washed, purified CD3 cells were added to CD11b cells for 24 hrs. CD3 cells were purified and analyzed for transcription levels of (FIG. 13E) CD200R1 and (FIG. 13F) PD-1. […]
In general terms: Flow cytometry measures light scatter and fluorescence of single cells or particles in a stream.

The subject of experiment [3] is spontaneously occurring glioblastoma. Briefly: Canine study: tumor resection plus canine CD200AR-L and autologous tumor lysate vaccination. Type of experiment: in vivo, dog. The following applies: canine glioma model. On the procedure: Canine study. Pet dogs with a solitary intra-axial mass found by magnetic resonance imaging (MRI) were recruited into a pilot study to assess the effect of a canine-specific peptide. The MRIs were performed to find the causes of generalized seizure activity or behavioral changes, and anti-epileptic drug therapy and corticosteroids were prescribed to control seizures and minimize cerebral edema, respectively. Additional inclusion criteria were 1) tumor suitable for surgical resection, 2) informed consent provided by the dog's owner, 3) normal mentation status at the time of surgery, and 4) no previous definitive therapy for the suspected glioma.
All dogs underwent surgical resection of the intra-axial mass for maximal tumor debulking. The removed tumors were immediately processed to generate autologous tumor lysates. The lysates were prepared by culturing single-cell suspensions from minced fresh tumor samples at 37° C. in 5% […]. […] An immediate postoperative MRI was performed to assess the extent of resection and to quantify any residual tumor volume. Tumor volume was measured using the planimetry method, which outlines the tumor perimeter on each MR slice; Osirix software was used to calculate the area, and then the areas were summed and multiplied by slice thickness plus gap width. After recovery from anesthesia, all dogs were monitored in the intensive care unit for at least 24 hours. […]

In another experiment the test system is Splenocytes. Description: Splenocytes pulsed with CD200 or PD-L1 +/- mCD200AR-L, flow cytometry for CTLA4 and PD-L1. Type of experiment: cell-based. As to the method:
FIGS. 14A-14C. […] Splenocytes were pulsed with CD200, PD-L1+/−mCD200AR-L. Cells were analyzed by flow cytometry for the (FIG. 14A) CD4^+CTLA4^+, (FIG. 14B) CD8^+CTLA4^+or (FIG. 14C) CD11b^+PD-L1^+ populations. Error bars are representative of n=2 *P<0.005, **P<0.0001.
We propose that soluble CD200 and PD-L1 inhibit T cell activation through multiple checkpoints (FIG. 10). Therefore, the effect of multiple suppressive molecules (CD200 and PD-L1) on T cell inhibition was investigated. […] In addition, following PD-L1 treatment, an upregulation of PD-L1 on CD11b and an upregulation of CTLA4 was observed on T cells. Being CTLA4 and PD-L1 propagate separate inhibitory signals, it was hypothesized that PD-L1 inhibits T cell activation through 1) direct CD200 and PD-L1 on T cells and 2) direct PD-L1 (on APCs)/PD-I (on […]) producing cytokines upregulating CTLA4, which would explain the enhanced responses seen in combination α-PD-1 and α-CTLA4 treatments. However, neither of them inhibit CD200 effect on T cells.
We next looked at the effects of CD200AR-L on T cell inhibition. […] Being CTLA4 and PD-L1 propagate separate inhibitory signals, we hypothesize that PD-L1 inhibits T cell activation through two separate mechanisms, 1) through direct PD-L1 (on APCs)/PD-I (on T cells) interactions and through cytokine production following PD-L1 binding to the PD-1 on CD11b cell, which would explain the enhanced responses seen in combination α-PD-1 and α-CTLA4 treatments.

For a further experiment, the system named is Murine splenocytes. Briefly: Splenocytes activated with PMA +/- PD-L1 or PD-L1+CD200AR-L, cytokines. Type of experiment: cell-based. The following applies: 48 hr. On the procedure: FIGS. 11A-11C. […] Murine splenocytes were activated with PMA, +/−PD-L1 or PD-L1+mCD200AR-L. Following 48 hr incubation, supernatants were analyzed for (FIG. 11A) TNFα (FIG. 11B) IL-4 or (FIG. 11C) IL-5. Error bars are representative of n=3; *P<0.005.
The CD200 and PD-1 pathways crosstalk, allowing CD200AR-L to override the suppressive PD-L1. […] To evaluate the effect of CD200AR-L on PD-1/PD-L1, splenocytes were activated with PMA+/−PD-L1 or PD-L1+CD200AR-L, and supernatants were analyzed for TNFα, IL-4 and IL-5 production (FIG. 11A-11C). As observed with the CD200 protein (FIG. 11B), PD-L1 induced an immune suppressed environment as measured by cytokine production; however, PD-L1 reduced the production of TNFα, IL-4 and IL-5 induced by PMA, which was restored by the addition of CD200AR-L. These experiments led to the hypothesis that the CD200 and PD-1 pathways are connected.

In a further experiment the test system is Murine CD11b cells. Description: PMA-activated murine CD11b cells treated with PD-L1 +/- murine CD200AR-L, cytokines. The class given is cell-based. The following applies: PD-L1 with or without murine CD200AR-L, 48 hr. The text has this:
FIGS. 8A-8C. CD200AR-L pulses overpowers the suppressive PD-L1.

The next experiment deals with murine glioma model. Description: Murine glioma model survival. The class given is in vivo.
The mark [4] stands for this setting: splenocytes pulsed with CD200 or PD-L1.

Entries after “also recorded” stand apart in the source; their conditions may differ.

Turning to “IVTWQKKAAVSPENM (Ac-IVTWQKKAAVSPENM-NH2; listed as Homo sapiens) [P1A8]”, the “levels of co-stimulatory molecules CD80, CD86, and HLA-DR” value in the experiment on CD14+ cells [1] is given as “higher levels”. The “secretion of inflammatory cytokines from CD14+ cells” value in the experiment with Human CD14+ cells is “maximally stimulated”. For the same substance, the “mRNA expression of TNF-regulated cytokines” value in the experiment with CD14+ cells [2] (NanoString platform, FIG. 3b) was “most potently and consistently induced”. Moreover, in the experiment on CD14+ cells [2] (RNAseq, CD14+ cells), the “mRNA expression of cytokines released in response to TNF signaling” value is on record as “notable increase”. Besides, in the experiment with human CD14 cells, the “PD-1 expression on human CD14 cells” value is “down regulated”.
Regarding “CLFNTFGSGAISGTA (Ac-CLFNTFGSGAISGTA-NH2; listed as Canis lupus) [canine P4A10]”, the survival benefit entry in experiment [3] is recorded as “significant survival benefit”.
Regarding “PD-L1: programmed cell death ligand 1, suppressive protein used to pulse cells”, in the experiment with Splenocytes (setting [4]), the “CTLA4 on CD4 cells” value is reported as “upregulated”, the “CTLA4 on CD8 cells” value is “upregulated” and the “PD-L1 on CD11b cells” value was “upregulation; also recorded: upregulated”. In the experiment on Splenocytes (total splenocytes, following PD-L1 treatment), the “CTLA4 on T cells” value is recorded as “upregulation”. For the same substance, the “production of TNFα, IL-4 and IL-5” value with Murine splenocytes is reported as “reduced”. The “activation of CD11b cells (TNFalpha, IL4, IL5 in supernatant)” value with Murine CD11b cells is “suppressed the activation”.
For the substance “VTWQKKKAVSPANM (Ac-VTWQKKKAVSPANM-NH2; listed as Mus musculus) [murine P1A12]”, in the experiment on murine glioma model, the survival benefit result is on record as “significant survival benefit”.
